In general, IC50 refers to the concentration at which inhibition is half-maximal.

The values that follow come from ChEMBL document CHEMBL4145503, “Design, synthesis and in vitro biological evaluation of novel [1,2,3]triazolo[4,5-d]pyrimidine derivatives containing a thiosemicarbazide moiety” (Eur J Med Chem, 2018).

Where only a bound is given, the exact number is not on record here.

What all share (type): functional, cell-based
The subject of one assay is NCI-H1650. In words: Antiproliferative activity against human NCI-H1650 cells after 72 hrs by MTT assay. Particulars: NCI-H1650, 72 h.
Another assay relates to MGC-803. As to the kind of experiment: Antiproliferative activity against human MGC803 cells after 72 hrs by MTT assay. Particulars: MGC-803, 72 h.
A further assay relates to PC-3. In words: Antiproliferative activity against human PC3 cells after 72 hrs by MTT assay. Particulars: PC-3, 72 h. In general terms: Tetrazolium dyes change colour on reduction, which living cells bring about.

With `CCCSc1nc(NNC(=S)NCc2ccccc2)c2nnn(CCc3cccs3)c2n1`, the figures for the IC50 in the assay with NCI-H1650, in the assay on MGC-803 and in the assay with PC-3 were above 64 µM, 41.1 µM and above 64 µM, respectively.
As for `CCCSc1nc(NNC(=S)NCc2ccccc2)c2nnn(CCc3c[nH]c4ccccc34)c2n1`, the IC50 in the assay on NCI-H1650 was above 64 µM; in the assay on MGC-803 it was 30.3 µM; in the assay on PC-3, 15.3 µM.
Turning to `O=c1[nH]cc(F)c(=O)[nH]1` [FLUOROURACIL], the IC50 with NCI-H1650 was determined as 14.6 µM; in the assay on MGC-803, 7.86 µM; in the assay with PC-3, 27.6 µM.
